Test results as given in patent EP0029303B1, “1,2,4-Triazole derivatives, processes for their production and pharmaceutical compositions containing them” (GLAXO GROUP LIMITED, priority 1979, dated 1981).

System: histamine induced gastric acid secretion
Test: inhibition of histamine induced gastric acid secretion in the perfused rat stomach preparation
Format: in vivo
Conditions: sodium pentobarbitone anaesthesia
Text: Certain novel heterocyclic derivatives having a structure different from the compounds referred to above, have now been found which have potent activity as H2-antagonists.
The results obtained for a representative number of compounds according to the invention are given below: […]

Compound | ED50
CCCCCCCCCCCCNCc1cccc(OCCCNc2nc(N)nn2C)c1 [1 (d), 1-methyl-N^5-[3-[3-[(dodecylamino)methyl]phenoxy]-propyl]-1H-1,2 4-triazoie-3,5-diamine] | 0.075 mg/kg
Cn1nc(N=Cc2ccncc2)nc1NCCCOc1cccc(CNCc2ccco2)c1 [Example 5, 1-Methyl-N3-(4-pyridylmethylene)-N^5-[3-[3-[(2-furanylmethyt)-aminomethyl)phenoxy]propyl]-1 H-1,2,4-triazole-3,5-diamine] | 0.18 mg/kg
Cn1nc(N)nc1NCCCOc1cccc(CNCc2ccc[nH]2)c1 [2 (d), 1-methyl-N5-[3-[3-[(1H-pyrrol-2-yl-methyl)amino-methyl]phenoxy]propyl]-1H-1,2,4-triazole-3,5-diamine] | 0.014 mg/kg
Cn1nc(N)nc1NCCCOc1cccc(CNCc2ccc(CO)o2)c1 [Example 2 (a), 5-[[3-[3-[(3-Amino-1-methyl-1,2,4-triazol-5-yl)-amino]propoxy]phenylmethyl]aminomethyl]furan-2-methanol] | 0.19 mg/kg
CN(Cc1ccco1)Cc1ccc(CSCCNc2nc(CO)nn2C)o1 [Example 6, 5-[[2-[[[5-[[N-Methyl(2-furanylmethyl)amino]methyl]-2-furanyl]methyl]thio]ethyl]amino]-1-methyl-1 H-1,2,4-triazole-3-methanol] | 0.077 mg/kg
Cn1nc(N)nc1NCCCOc1cccc(CNCc2ccco2)c1 [1 (b), 1-methyl-N^5-[3-[3-[(2-furanylmethyl)aminomethyl]phenoxy]propyl)-1H-1,2,4-triazole-3,5-diamine] | 0.095 mg/kg
CCCCNC(=O)CCCCCNCc1cccc(OCCCNc2nc(N)nn2C)c1 [1 (g)] | 0.25 mg/kg
